Reference: paper PMC8607110, “Pyrazole Derivatives Induce Apoptosis via ROS Generation in the Triple Negative Breast Cancer Cells, MDA-MB-468” (Asian Pacific Journal of Cancer Prevention : APJCP, 2021)
Values joined by “and” are separate entries in the source; they are usually repeats but may differ in a detail not shown here. Identical values can stand only once. Like-named read-outs stand apart in the source and are kept apart here.

Tests used:
5637 cells = test system: 5637 cells; design: method as in Tessmann et al., 2017; conditions: human bladder cancer cell line; ref Tessmann et al., 2017; cited from earlier work
AGO1522 cells = assay: MTT cell viability assay, AGO1522 normal fibroblasts; type: cell-based; conditions: Homo sapiens, Fibroblast, mean ± SD of triplicate
Description: (§1) The MDA-MB-468 cells were maintained in DMEM/Ham’s F12 supplemented with L-glutamine, with 10% fetal bovine serum and 1% penicillin/streptomycin. The AGO1522 cell line was cultured in DMEM/Low Glucose, with 10% fetal bovine serum and 1% penicillin/ streptomycin. Cells were incubated at 37°C, 5% CO2 and every 2-3 days at the confluency of 80%, the cells were harvested from the culture flask by Trypsin-EDTA.
(§2) Cell viability was measured with the MTT assay. The reduction of the tetrazolium salt, to a blue formazan crystal is facilitated by mitochondrial dehydrogenase and NADPH-dependent cellular oxidoreductase enzymes (Abel and Baird, 2018). In the assay, an aliquot of 7.5 × 10^3 cells was seeded on the 96-well plates and allowed to attach overnight. Then, 11 Pyrazole derivatives (as shown in Table 1 and Figure S1) were added to the desired well with the final concentration of 3, 6.25, 12.5, 25, 50, 100 μM. After pre-treating cells for 24 and 48h, MTT (5 mg/ml in PBS) was added to each well and the cells were incubated for another 4 h at 37°C. In order to dissolve blue-colored formazan crystals, the entire medium was aspirated after the incubation period, and DMSO was added to the wells. An ELISA plate reader (BioTek Instruments, Inc., USA) was used to quantify the formazan concentration (with the wavelengths of 570 nm). All of the experiments were carried out on three replicates to ensure the measurement repeatability and the IC50 values were also calculated using GraphPad Prism software.

MDA-MB-468 cells [1] = assay: MTT cell viability assay, MDA-MB-468; type: cell-based, human; conditions: mean ± SD of triplicate
Description: as §1, §2

[2] = test system: caspase-3 in MDA-MB-468 cells; assay: Caspase-3 activity, DEVD-AFC fluorometric assay; type: cell-based, human; conditions: 14.97 μM, 24 h, MDA-MB-468, vs untreated
Description: From a mechanistic point of view, caspase 3 as a member of the cysteine-aspartic protease family is essential for a variety of biological activities, including apoptosis in mammalian cells (Skiba et al., 2019). To confirm the drug triggers apoptosis, the level of 7-amino-4-trifluoromethyl-coumarin (AFC) from DEVD-AFC, a marker of caspase 3 activation, was measured using Caspase-3/CPP32 Fluorometric Assay Kit (BioVision Research Products, Mountain View, CA, USA). Briefly, MDA-MB-468 cells (a density of 7.5 × 10^3 per well in 96-wells plate) were treated with 14.97 μM 3f for 24 h. The following day, cells were collected, washed two times in PBS and lysed in lysis buffer (for 10 min on ice). The concentration of protein was assessed and 50 µL of supernatant containing 50-200 µg protein was added to the 50 µL of 2x reaction buffer and 5 μl of DEVD-AFC substrate (1 mM), in a 96-wells plate. The mixture was then left at 37°C for 2 hours followed by monitoring the fluorescence intensity using a fluorescent microplate reader (BioTek Synergy HT, Winooski, VT, USA).

MDA-MB-468 cells [3] = assay: Cell cycle analysis by PI staining and flow cytometry; type: cell-based, human; conditions: 14.97 μM, 24 h
Description: Cell cycle analysis was conducted through taking advantage of PI staining and flow cytometry analysis. To evaluate cellular DNA levels, the cells stained with PI were subjected to ﬂow cytometric analyses. In this assay, six-well plates were loaded with 2 × 10^5 MDA-MB-468 cells / well. After incubation of the samples at 37°C for 24 h, cells were treated with 3f at concentrations of 14.7 μM followed 24 h incubation. Then, the effect of the drug became evident and cells collected by rinsing with PBS (two times), immobilizing with 70% ice-cold ethanol (for 3 h), and washing with PBS (two times). To resuspend the cells a mixture of 0.25 ml PBS containing 5 μl of 10 mg/ml RNase A and Triton X-100 (0.1%) including 10μl of PI (50 μg/ml) was used and incubation was performed at 37°C for 30 min in a dark place. The assessment of stain cells was carried out employing a FACS Calibur flow cytometer (BD Biosciences, San Jose, CA). The apoptotic rate of the cell population was measured by calculating the percentage of cells with sub-G1 DNA content.

MDA-MB-468 cells [4] = assay: Annexin V-FITC/PI apoptosis detection by flow cytometry; type: cell-based, human; conditions: 14.97 µM, 24 h, MDA-MB-468, compared with untreated cells
Description: Annexin V-FITC/PI Apoptosis Detection Kit was employed to detect apoptosis. To assess the number of apoptotic cells, an aliquot of MDA-MB-468 cells was adjusted to obtain 2 × 10^5 cells per well in six-well plates followed by incubation for an overnight. After incubation cells on the surface for an appropriate time, compound 3f was added to the wells to obtain the final concentration of 14.7μM in wells for 24 h. Cells were then harvested from the culture wells by aspirating media and washing with ice-cold PBS. Once the cells have detached, resuspended cells were pipetted up and down thoroughly followed by transferring to a sterilized 5 ml centrifuge tube. After 15min, 400 µl of the binding buffer was added to the cell suspension. Then annexin V-FITC and PI staining solution were added to the tubes. The cell suspension was then placed in a dark place (10 min at room temperature). A flow cytometer (BD Biosciences, San Jose, CA) was used to analyze the cells. The analysis of data was made using FlowJo software.

MDA-MB-468 cells [5] = assay: Intracellular ROS detection with DCFH-DA; type: cell-based, human; conditions: 14.97 μM, 24 h, MDA-MB-468, DCFH-DA fluorimetry, vs untreated
Description: The level of intracellular ROS corresponded to the MDA-MB-468 cells in response to the 3f compound was monitored by using DCFH-DA. Briefly, 7.5 × 10^3 MDA-MB-468 cells were seeded per well of 96-wells plate and allowed to attach to the bottom of the wells for an overnight followed by treatment with 3f compound at a concentration of 14.7 μM. After incubation of cells for 24 h, PBS was used for rinsing and then cells incubated in the presence of DCFH-DA for 30 min at 37°C. Next, to remove the extracellular DCFH-DA, cells were washed three times with prechilled PBS. Finally, the fluorescent of collected cells was analyzed by using a fluorescent microplate reader (BioTek Synergy HT, Winooski, VT, USA).

[6] = 24 h treatment, read-out: IC50, AGO1522, 24 hours
[7] = 48 h treatment, read-out: IC50, AGO1522, 48 hours
[8] = Homo sapiens, MDA-MB-468, 24 h, 24 h treatment, read-out: IC50, MDA-MB-468, 24 hours
[9] = Homo sapiens, MDA-MB-468, 48 h, 48 h treatment, read-out: IC50, MDA-MB-468, 48 hours

IC50 (MDA-MB-468 cells [1]; [8]) [µM] | IC50 (MDA-MB-468 cells [1]; [9]) [µM] | Compound | IC50 (AGO1522 cells; [6]) [µM] | IC50 (AGO1522 cells; [7]) [µM] | also measured
– | – | NC(=S)N1N=C(c2ccccc2)CC1c1ccccc1 (stereo not shown) [2a, 1-thiocarbamoyl-3,5-diphenyl-4,5-dihydro-1H-Pyrazole] | – | – | cell cycle progression of 5637 cells (5637 cells): inhibited cell cycle progression
– | – | NC(=S)N1N=C(c2ccccc2)CC1c1ccc(Cl)cc1 (stereo not shown) [2c, 1-thiocarbamoyl-5-(4-chlorophenyl)-3-phenyl-4,5-dihydro-1H-Pyrazole] | – | – | cell cycle progression of 5637 cells (5637 cells): inhibited cell cycle progression
25 | 6.41 ± 1.1 | COc1cc(C2CC(c3ccccc3)=NN2c2ccccc2)cc(OC)c1OC (stereo not shown) [3a, 1,3-diphenyl-5-(3,4,5-trimethoxyphenyl)-4,5-dihydro-1H-Pyrazole] | 28.8 ± 0.95 | 19.9 ± 0.83 | –
19.2 ± 0.97 | 9.29 ± 0.67 | COc1cc(C2CC(c3ccccc3)=NN2c2ccc(C)cc2)cc(OC)c1OC (stereo not shown) [3b, 3-phenyl-1-(p-tolyl)-5-(3,4,5-trimethoxyphenyl)-4,5-dihydro-1H-Pyrazole] | 29.8 ± 1.02 | 19.8 ± 0.96 | –
58.6 ± 0.82 | 19.9 ± 1.12 | COc1cc(C2CC(c3ccccc3)=NN2c2ccc(Cl)cc2)cc(OC)c1OC (stereo not shown) [3c, 1-(4-chlorophenyl)-3-phenyl-5-(3,4,5-trimethoxyphenyl)-4,5-dihydro-1H-Pyrazole] | 24.1 ± 0.65 | 17.7 ± 0.93 | –
32.6 ± 1.22 | 15.2 ± 0.9 | COc1cc(C2CC(c3ccccc3)=NN2c2ccc(F)cc2)cc(OC)c1OC (stereo not shown) [3d, 1-(4-fluorophenyl)-3-phenyl-5-(3,4,5-trimethoxyphenyl)-4,5-dihydro-1H-Pyrazole] | 42.1 ± 1.27 | 35.6 ± 1.32 | –
21.3 ± 0.85 | 10.8 ± 0.93 | COc1ccc(C2=NN(c3ccccc3)C(c3cc(OC)c(OC)c(OC)c3)C2)cc1 (stereo not shown) [3e, 3-(4-methoxyphenyl)-1-phenyl-5-(3,4,5-trimethoxyphenyl)-4,5-dihydro-1H-Pyrazole] | 42.8 ± 0.98 | 19.9 ± 0.99 | –
15 ± 1.09 | 6.4 | COc1ccc(C2=NN(c3ccc(C)cc3)C(c3cc(OC)c(OC)c(OC)c3)C2)cc1 (stereo not shown) [3f, 3-(4-methoxyphenyl)-1-(p-tolyl)-5-(3,4,5-trimethoxyphenyl)-4,5-dihydro-1H-Pyrazole] | 28.7 ± 1.2 | 20.3 ± 0.83 | caspase-3 activity [2]: significantly increased; G1 cell fraction (MDA-MB-468 cells [3]): 50.52%; G2 cell fraction (MDA-MB-468 cells [3]): 6.28%; S phase cell fraction (MDA-MB-468 cells [3]): 35% and 35.01%; Sub-G1 cell fraction (MDA-MB-468 cells [3]): 8.12%; Super-G2 cell fraction (MDA-MB-468 cells [3]): 0.07%; cell cycle effect (MDA-MB-468 cells [3]): induced cell cycle arrest in S phase; Sub-G1 cell fraction (MDA-MB-468 cells [3]; as worded in text): 8.12%; apoptosis value (MDA-MB-468 cells [4]): 38%; IC50 (MDA-MB-468 cells [1]; 48 h treatment, read-out: IC50, MDA-MB-468, 48 hours): 6.45 ± 0.84 µM; intracellular ROS level (MDA-MB-468 cells [5]): ascending trend
25.8 ± 0.91 | 8.5 ± 0.89 | COc1ccc(C2=NN(c3ccc(Cl)cc3)C(c3cc(OC)c(OC)c(OC)c3)C2)cc1 (stereo not shown) [3g, 1-(4-chlorophenyl)-3-(4-methoxyphenyl)-5-(3,4,5-trimethoxyphenyl)-4,5-dihydro-1HPyrazole] | 43.3 ± 0.96 | 34 ± 1.92 | –
19.4 ± 1.14 | 11 ± 0.88 | COc1cc(-c2cc(-c3ccccc3)nn2-c2ccccc2)cc(OC)c1OC [4a, 1,3-diphenyl-5-(3,4,5-trimethoxyphenyl)-1H-Pyrazole] | 31.2 ± 1.24 | 14.5 ± 0.97 | –
58.2 ± 1.35 | 12 ± 0.94 | COc1ccc(-c2cc(-c3cc(OC)c(OC)c(OC)c3)n(-c3ccc(C)cc3)n2)cc1 [4b, 3-(4-methoxyphenyl)-1-(p-tolyl)-5-(3,4,5-trimethoxyphenyl)-1H-Pyrazole] | 34.6 ± 0.89 | 27 ± 0.79 | –
28.8 ± 0.98 | 12.4 ± 0.79 | COc1ccc(-c2cc(-c3cc(OC)c(OC)c(OC)c3)n(-c3ccc(Cl)cc3)n2)cc1 [4c, 1-(4-chlorophenyl)-3-(4-methoxyphenyl)-5-(3,4,5-trimethoxyphenyl)-1H-Pyrazole] | 25.2 ± 0.88 | 20.9 ± 0.92 | –
58.6 ± 1.32 | 24.5 ± 1.17 | COc1ccc(-c2cc(-c3cc(OC)c(OC)c(OC)c3)n(-c3ccc(F)cc3)n2)cc1 [4d, 1-(4-fluorophenyl)-3-(4-methoxyphenyl)-5-(3,4,5-trimethoxyphenyl)-1H-Pyrazole] | 34.4 ± 1.31 | 27.3 ± 0.94 | –
49.9 ± 0.97 | 25.2 ± 1.27 | CC(=O)O[C@H]1C(=O)[C@@]2(C)[C@H]([C@H](OC(=O)c3ccccc3)[C@]3(O)C[C@H](OC(=O)[C@H](O)[C@@H](NC(=O)c4ccccc4)c4ccccc4)C(C)=C1C3(C)C)[C@]1(OC(C)=O)CO[C@@H]1C[C@@H]2O [Paclitaxel, reference compound] | 42.9 ± 1.42 | 22.6 ± 0.91 | –
